Reference: publication PMC5036617 (Toxicological Sciences, 2016)
pIC50: −log10 of the molar value. Where two headings read alike, the source gives them in different places.

Key:
HepG2 cells [1] = assay: Mitochondrial stress test, OCR analysis (Seahorse XFe96); type: cell-based; conditions: for basal respiration / maximal respiration: glucose medium, 7.8–500 µM; for basal respiration / maximal respiration / ATP-linked OCR as a percentage of maximal respiration / proton leak as a percentage of maximal respiration / spare respiratory capacity as a percentage of maximal respiration: vs vehicle control
Protocol: HepG2 cells were collected by trypsinization and seeded on a collagen-coated XF 96-well cell culture microplate (25 000 cells/100 µl medium/well) and incubated overnight in glucose medium (37 °C, 5% CO2). All assays used ≤ 0.5% DMSO as a vehicle control. Cells were incubated for 1 h (37°C, 0% CO2) before culture medium was replaced by 175 µl of unbuffered Seahorse XF Base medium supplemented with glucose (25 mM), L-glutamine (2 mM), sodium pyruvate (1 mM), pre-warmed to 37 °C (pH 7.4). Prior to measurement of OCR, the Seahorse XFe96 instrument gently mixed the assay medium in each well for 10 min to enable the oxygen partial pressure to reach equilibrium. […] There were 9 OCR measurement cycles following compound injection and each measurement cycle consisted of a 3 min mix and 3 min measure. […] After stress test compound injections there were 3 measurement cycles before the injection of the next stress test compound. This enabled the calculation of basal respiration (OCR prior to oligomycin injection—non-mitochondrial OCR), proton leak (OCR after oligomycin injection—non-mitochondrial OCR), ATP-linked OCR (basal respiration—proton leak—non-mitochondrial OCR), maximal respiration (first injection after FCCP injection—non-mitochondrial OCR) and spare respiratory capacity (maximal respiration—basal respiration) (Figure 2).  FIG. 2 Representative control mitochondrial stress test trace. Mitochondrial stress test assays consisted of a series of compound injections into the cell culture microplate. […] Remaining injections consisted of oligomycin (ATP synthase inhibitor), FCCP (OXPHOS uncoupler), and rotenone/antimycin A (complex I and III inhibitors, respectively) with each followed by 3 measurement cycles. This series of manipulations enabled the calculation of parameters: basal, ATP-linked, maximum, and non-mitochondrial OCR, as well as proton leak. Each measurement cycle was a total of 6 min. Following completion of OCR assays, medium was removed from all wells and 20 µl of somatic cell ATP releasing agent was added to each well before shaking for 1 min and transfer of 10 µl of lysate to a 96-well plate and performance of a BCA assay according to the manufacturer’s instructions. Protein content per well was used to normalize OCR.

[2] = test system: mitochondrial respiratory complex I; assay: In situ respiratory complex assay in permeabilized cells, complex I; type: cell-based; conditions: uncoupled, permeabilized HepG2 cells, 10–250 µM
[3] = test system: mitochondrial respiratory complex IV; assay: In situ respiratory complex assay in permeabilized cells, complex IV; type: cell-based; conditions: uncoupled, permeabilized HepG2 cells, 10–250 µM
[4] = test system: mitochondrial respiratory complex I; assay: Complex I-linked respiration assay in permeabilized cells; type: cell-based; conditions: for concentration inducing a significant reduction in complex I activity: permeabilized HepG2 cells, complex I-stimulated maximal respiration vs vehicle control, 10–250 µM
Protocol: (§1) Culture medium was replaced with MAS buffer containing constituents to stimulate oxygen consumption via complex I (as previously without FCCP), complex II (ADP; 4.6 mM, succinate; 20 mM, rotenone; 1 µM, BSA; 0.2% w/v, PMP; 1 nM), or complex III (ADP; 4.6 mM, duroquinol; 500 μM, rotenone; 1 μM, malonic acid; 40 μM, BSA; 0.2% w/v, PMP; 1 nM) dependent on the respiratory complex of interest. […] Changes in complex II activity were also assessed at lower compound concentrations; 2–30 μM (Supplementary Figure S1). Complex I, II, and III activity were defined by the change in complex I, II, or III-stimulated maximal respiration respectively compared with vehicle control.
(§2) Following completion of OCR assays, medium was removed from all wells and 20 µl of somatic cell ATP releasing agent was added to each well before shaking for 1 min and transfer of 10 µl of lysate to a 96-well plate and performance of a BCA assay according to the manufacturer’s instructions. Protein content per well was used to normalize OCR.

[5] = test system: mitochondrial respiratory complex II; assay: Complex II-linked respiration assay in permeabilized cells; type: cell-based; conditions: permeabilized HepG2 cells; for complex II activity: complex II-stimulated maximal respiration vs vehicle control, 10–250 µM
Protocol: as §1, §2

[6] = test system: mitochondrial respiratory complex III; assay: Complex III-linked respiration assay in permeabilized cells; type: cell-based; conditions: permeabilized HepG2 cells, complex III-stimulated maximal respiration, 10–250 µM
Protocol: as §1, §2

Complex V (ATP synthase) = assay: Complex V assay in permeabilized cells; type: cell-based; conditions: permeabilized HepG2 cells, OCR change coupled vs uncoupled cells, 10–250 µM
Protocol: The assay consisted of a basal OCR measurement of 2 cycles of mix (30 s), wait (30 s), and measure (2 min) followed by MAS or FCCP injection (0.5 µM) and 2 measurement cycles. MAS-injected cells remain coupled whereas FCCP-injected cells become uncoupled meaning Complex V (ATP synthase) inhibition should not result in a change in OCR. […] FIG. 4 Representative complex V assay trace. Complex V assays consisted of cells in a solution containing substrates for complex IV before a series of compound injections into the cell culture microplate. FCCP (OXPHOS uncoupler) (Trace A) or MAS buffer (Traces B and C) was first injected, followed by 2 cycles of measurements. Flutamide, 2-hydroxyflutamide, oligomycin (positive control), or vehicle control was then injected into both the uncoupled (FCCP-treated) and coupled (MAS-treated) cells. […] Each measurement cycle was a total of 3 min. Following completion of OCR assays, medium was removed from all wells and 20 µl of somatic cell ATP releasing agent was added to each well before shaking for 1 min and transfer of 10 µl of lysate to a 96-well plate and performance of a BCA assay according to the manufacturer’s instructions. Protein content per well was used to normalize OCR.

HepG2 cells [7] = assay: Assessment of NAD+/NADH ratio; type: cell-based; conditions: 2 h, glucose medium, 30–500 µM
Protocol: HepG2 cells were collected by trypsinization and seeded on a 24-well plate (450 000 cells/500 µl/well) and incubated overnight in glucose medium (37 °C, 5% CO2). […] NAD^+ and NADH concentrations were measured in lysates using a NAD^+/NADH ratio assay kit according to the manufacturer’s instructions.

[8] = cited from earlier work; for half-life: after flutamide administration, ref Kostrubsky et al., 2007; for Cmax: plasma, ref Schulz et al., 1988, read-out: maximum plasma concentration (Cmax)
bile salt export pump = test system: bile salt export pump; parameters: method as in Kostrubsky et al., 2007; conditions: via bile salt export pump inhibition; ref Kostrubsky et al., 2007; read-out: IC50 inhibition of taurocholate efflux; cited from earlier work

Row | Compound | basal respiration (HepG2 cells [1]) | maximal respiration (HepG2 cells [1]) | ATP-linked OCR as a percentage of maximal respiration (HepG2 cells [1]; up to 500 µM) | proton leak as a percentage of maximal respiration (HepG2 cells [1]; up to 500 µM) | spare respiratory capacity as a percentage of maximal respiration (HepG2 cells [1]; up to 500 µM) | complex I activity (response to rotenone) [2] | complex IV activity [3] | concentration inducing a significant reduction in complex I activity [4] | complex II activity [5] | complex III activity [6] | NAD+/NADH ratio (HepG2 cells [7]) | concentration significantly decreasing NAD+/NADH ratio (HepG2 cells [7]) | half-life [8] | pIC50 (bile salt export pump) | further results
1 | CC(C)(O)C(=O)Nc1ccc([N+](=O)[O-])c(C(F)(F)F)c1 [2-hydroxyflutamide] | significant decrease | significant decrease | significant decrease | significant increase | significant decrease | significant reduction in complex I activity | Neither compound appeared to have a significant impact | ≥ 30 µM | significant reduction | no significant inhibition | significantly decreased | ≥ 100 µM | 9.6 h | 3.96 | concentration inducing a significant decline in complex II activity ([5]; complex II-stimulated maximal respiration, 2–30 and 10–250 µM): ≥ 10 µM; concentration inducing a significant reduction in complex V activity (Complex V (ATP synthase)): ≥ 125 µM; Cmax ([8]; metabolite after single 250 mg dose of flutamide): 4400 nM
2 | CC(C)C(=O)Nc1ccc([N+](=O)[O-])c(C(F)(F)F)c1 [Flutamide] | significant decrease | significant decrease | significant decrease | significant increase | significant decrease | significant reduction in complex I activity | Neither compound appeared to have a significant impact | ≥ 30 µM | only 2-hydroxyflutamide and not flutamide induced a significant reduction | no significant inhibition | significantly decreased | ≥ 100 µM | 7.8 h | 4.12 | OCR upon compound injection, mitochondrial stress test (HepG2 cells [1]; up to 500 µM): immediate concentration-dependent reduction in OCR; OCR upon compound injection, complex I assay ([4]; permeabilised HepG2 cells, up to 250 µM): immediate concentration-dependent reduction in OCR; complex V activity (Complex V (ATP synthase)): this was not the case for flutamide; Cmax ([8]; single 250 mg dose of flutamide): 72.2 nM; parent drug as share of detectable compound in the plasma following administration ([8]; ref Radwanski et al., 1989): 2.5%
